Laboratory results: PubChem BioAssay AID248 (DTP/NCI, 2004)
“And” between values parts separate entries of the source, which are not always exact repeats. Identical values can stand only once. Toxic doses and inconclusive results are not listed. Rule as the data show it: active = T/C of 150% or more; inactive = T/C below 125%.

System: L1210 leukemia ip in BDF1 mice, survival T/C
Experiment: NCI In Vivo Anticancer Drug Screen. Data for tumor model L1210 Leukemia (intraperitoneal) in B6D2F1 (BDF1) mice
Conditions: endpoint: mean survival time, higher = longer survival
Method in brief: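 Transplanted-tumor mice were given test agent; controls received vehicle only. Survival readings from the two groups were divided (treated over control).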

[1] = dose: 100.0 mg/kg/injection, schedule: Q01DX009 (ip), vehicle: saline with Tween-80

Measured: T/C

COc1cc2ccc3c(c2cc1OC)CN1CCc2cc4c(cc2C1C3)OCO4 (stereo not given)
inactive: dose: 100.0 mg/kg/injection, schedule: Q01DX009 (ip), vehicle: saline sonified 93 % of control | dose: 100.0 mg/kg/injection, schedule: Q04DX003 (ip), vehicle: saline sonified 109 % of control | dose: 200.0 mg/kg/injection, schedule: Q01DX009 (ip), vehicle: saline sonified 109 % of control | dose: 200.0 mg/kg/injection, schedule: Q04DX003 (ip), vehicle: saline sonified 98 % of control | dose: 400.0 mg/kg/injection, schedule: Q01DX009 (ip), vehicle: saline sonified 94 % of control | dose: 400.0 mg/kg/injection, schedule: Q04DX003 (ip), vehicle: saline sonified 101 % of control

CC(=O)OC1CCC2(C)C(C1)C(OC(C)=O)CC1C3CCC(c4cccc(=O)o4)C3(C)CCC12 (stereo not given)
inactive: dose: 100.0 mg/kg/injection, schedule: Q01DX001 (sc), vehicle: steriod suspending solution 101 % of control | dose: 200.0 mg/kg/injection, schedule: Q01DX001 (sc), vehicle: steriod suspending solution 102 % of control | dose: 400.0 mg/kg/injection, schedule: Q01DX001 (sc), vehicle: steriod suspending solution 112 % of control

C=CC1CNCCC1CC(=O)OCC (stereo not given)
inactive: dose: 50.0 mg/kg/injection, schedule: Q04DX003 (ip), vehicle: saline 97 % of control | dose: 100.0 mg/kg/injection, schedule: Q01DX001 (ip), vehicle: saline 95 % of control | dose: 100.0 mg/kg/injection, schedule: Q04DX003 (ip), vehicle: saline 95 % of control | dose: 200.0 mg/kg/injection, schedule: Q01DX001 (ip), vehicle: saline 91 % of control | dose: 200.0 mg/kg/injection, schedule: Q04DX003 (ip), vehicle: saline 111 % of control

CN1C2CC(=O)CC1C1CC2C1
inactive: dose: 12.5 mg/kg/injection, schedule: Q04DX002 (ip), vehicle: Klucel (hydroxypropylcellulose) (HPC) 98 % of control | dose: 25.0 mg/kg/injection, schedule: Q04DX002 (ip), vehicle: Klucel (hydroxypropylcellulose) (HPC) 94 % of control

NC(=O)C(NC(=O)c1ccccc1)Sc1ccccc1 (stereo not given)
inactive: dose: 50.0 mg/kg/injection, schedule: Q01DX001 (ip), vehicle: Klucel (hydroxypropylcellulose) (HPC) 100 % of control | dose: 100.0 mg/kg/injection, schedule: Q01DX001 (ip), vehicle: Klucel (hydroxypropylcellulose) (HPC) 100 % of control | dose: 200.0 mg/kg/injection, schedule: Q01DX001 (ip), vehicle: Klucel (hydroxypropylcellulose) (HPC) 96 % of control

O=C1C=CC(=O)C2C3CC(C4OC34)C12 (stereo not given)
inactive: dose: 25.0 mg/kg/injection, schedule: Q01DX009 (ip), vehicle: saline with Tween-80 102 % of control | dose: 50.0 mg/kg/injection, schedule: Q01DX009 (ip), vehicle: saline with Tween-80 94 % of control | [1] 100 % of control and 89 % of control

O=C(NC(=O)c1ccccc1)Nc1cccc2ccccc12
inactive: dose: 100.0 mg/kg/injection, schedule: Q04DX002 (ip), vehicle: gum acacia 97 % of control | dose: 200.0 mg/kg/injection, schedule: Q04DX002 (ip), vehicle: gum acacia 90 % of control | dose: 400.0 mg/kg/injection, schedule: Q04DX002 (ip), vehicle: gum acacia 90 % of control

N#Cc1ccc(OCCCCOc2ccc([N+](=O)[O-])cc2Cl)cc1
inactive: dose: 100.0 mg/kg/injection, schedule: Q01DX009 (ip), vehicle: Klucel (hydroxypropylcellulose) (HPC) 91 % of control | dose: 200.0 mg/kg/injection, schedule: Q01DX009 (ip), vehicle: Klucel (hydroxypropylcellulose) (HPC) 95 % of control | dose: 400.0 mg/kg/injection, schedule: Q01DX009 (ip), vehicle: Klucel (hydroxypropylcellulose) (HPC) 101 % of control

CCCCCCCCCCCC(=O)Nc1ccc2ccccc2c1
inactive: [1] 93 % of control and 97 % of control | dose: 100.0 mg/kg/injection, schedule: Q04DX002 (ip), vehicle: saline with Tween-80 105 % of control and 107 % of control | dose: 100.0 mg/kg/injection, schedule: Q04DX003 (ip), vehicle: saline with Tween-80 105 % of control | dose: 200.0 mg/kg/injection, schedule: Q01DX009 (ip), vehicle: saline with Tween-80 107 % of control and 88 % of control | dose: 200.0 mg/kg/injection, schedule: Q04DX002 (ip), vehicle: saline with Tween-80 93 % of control and 89 % of control | dose: 200.0 mg/kg/injection, schedule: Q04DX003 (ip), vehicle: saline with Tween-80 94 % of control | dose: 400.0 mg/kg/injection, schedule: Q01DX009 (ip), vehicle: saline with Tween-80 96 % of control and 90 % of control | dose: 400.0 mg/kg/injection, schedule: Q04DX002 (ip), vehicle: saline with Tween-80 94 % of control and 117 % of control | dose: 400.0 mg/kg/injection, schedule: Q04DX003 (ip), vehicle: saline with Tween-80 95 % of control

Cc1nccc2c(C)c3c(cc12)c1ccccc1n3CC1CO1 (stereo not given)
inactive: dose: 4.69 mg/kg/injection, schedule: Q01DX009 (ip), vehicle: saline with Tween-80 119 % of control | dose: 9.37 mg/kg/injection, schedule: Q04DX003 (ip), vehicle: saline with Tween-80 113 % of control | dose: 18.75 mg/kg/injection, schedule: Q01DX009 (ip), vehicle: saline with Tween-80 124 % of control | dose: 18.75 mg/kg/injection, schedule: Q04DX003 (ip), vehicle: saline with Tween-80 119 % of control | dose: 37.5 mg/kg/injection, schedule: Q01DX009 (ip), vehicle: saline with Tween-80 103 % of control | dose: 37.5 mg/kg/injection, schedule: Q04DX003 (ip), vehicle: saline with Tween-80 122 % of control | dose: 75.0 mg/kg/injection, schedule: Q01DX009 (ip), vehicle: saline with Tween-80 92 % of control | dose: 150.0 mg/kg/injection, schedule: Q04DX003 (ip), vehicle: saline with Tween-80 115 % of control
